Data set [1] deals with patients with prior myocardial infarction (CARE study). Description: CARE: risk of cardiovascular disease events associated with pravastatin by CD6 or FCAR genotype (Tables 11, 12). The class given is in vivo, human. Particulars: for RR (relative risk) of RMI associated with Pravastatin: recurrent MI during 5 years follow up; for OR of RMI associated with Pravastatin, Adjusted for Age, Smoking status, Gender / OR of RMI associated with Pravastatin, Adjusted for Age, Smoking status, Gender, hypertension, BMI, diabetes, baseline LDLD and HDL / OR of RMI associated with Pravastatin, Unadjusted: placebo group as reference. The source says: In order to identify genetic markers associated with acute coronary events (e.g. MI, stroke, unstable angina, congestive heart failure, etc.) or response to statin treatment for the prevention of coronary events, samples from the Cholesterol and Recurrent Events (CARE) study (a randomized multicentral double-blinded trial on secondary prevention of acute coronary events with pravastatin) (Sacks et al., 1991, Am. J. Cardiol. 68: 1436-1446) were genotyped. A well-documented myocardial infarction (MI) was one of the enrollment criteria for entry into the CARE study. Patients were enrolled in the CARE trial from 80 participating study centers. […] Patients were randomized to receive either 40 mg of pravastatin once daily or a matching placebo. The primary endpoint of the trial was death from coronary heart disease and the median duration of follow-up was 5.0 years (range, 4.0 to 6.2 years). […] Secondary endpoints of other related cardiovascular or metabolic disease events, and changes in clinical variables were also recorded in pravastatin-treated and placebo groups. All individuals included in the study had signed a written informed consent form and the study protocol was approved by the respective Institutional Review Boards (IRBs).
In both studies the individuals homozygous for the minor allele were statistically different from heterozygous and major allele homozygous individuals in the pravastatin treated group vs. the placebo treated group. This SNP was associated with a reduced risk of an adverse coronary event in the CARE and WOSCOPS studies with RR or OR of 0.13 and 0.23 respectively in the two studies. Therefore, SNPs identified as useful for predicting RMI may also be useful for predicting increased risk for developing primary MI.
Therefore, an allele found to be associated with risk for MI, RMI, stroke, or other adverse cardiovascular event, may also be useful for predicting responsiveness to statin treatment. SNPs associated with treatment response to pravastatin may also be predictive of responsiveness of an individual to other statins as a class.

Data set [2] relates to animal models and myocyte cultures. Particulars: compared to other hydrophobic statins; cited from earlier work.
The mark [3] stands for this setting: FCAR hCV7841642 genotype AA + AG.

As for `CC[C@H](C)C(=O)O[C@H]1C[C@H](O)C=C2C=C[C@H](C)[C@H](CC[C@@H](O)C[C@@H](O)CC(=O)O)[C@H]21` [pravastatin], the “RR or OR of adverse coronary event, pravastatin vs placebo” value in data set [1] (CD6 hCV2553030, homozygous for the minor allele) worked out at 0.13. Further, the “RR (relative risk) of RMI associated with Pravastatin” value came out at 0.76 in data set [1] (CD6 hCV2553030 genotype Het (TC)); 0.8 in data set [1] (CD6 hCV2553030 genotype Major hom (CC)); 0.13 in data set [1] (CD6 hCV2553030 genotype Minor hom (TT)); 0.78 in data set [1] (CD6 hCV2553030 recessive (TT + CC)ref); 0.13 in data set [1] (CD6 hCV2553030 recessive (TT)). For the same molecule, the “OR of RMI associated with Pravastatin, Adjusted for Age, Smoking status, Gender” value is reported as 0.31 in data set [1] (setting [3]) and 0.79 in data set [1] (FCAR hCV7841642 genotype GG). Moreover, the figures for the “OR of RMI associated with Pravastatin, Adjusted for Age, Smoking status, Gender, hypertension, BMI, diabetes, baseline LDLD and HDL” value in data set [1] (setting [3]) and in data set [1] (FCAR hCV7841642 genotype GG) were 0.31 and 0.79, respectively. The “OR of RMI associated with Pravastatin, Unadjusted” value in data set [1] (setting [3]) came out at 0.32; in data set [1] (FCAR hCV7841642 genotype GG), 0.81. The myopathic potential entry in data set [2] is “low myopathic potential”.

The values above are taken from patent US9932637B2, “Genetic polymorphisms associated with cardiovascular disorders and drug response, methods of detection and uses thereof” (CELERA CORPORATION, priority 2003, dated 2018).
